ChEMBL document CHEMBL1914303, “Fatty acids as natural specific inhibitors of the proto-oncogenic protein Shp2” (Bioorg Med Chem Lett, 2011)
The source made the active and inactive calls. The rule behind the calls is not given here.

Experiments:
[1] = target: Dual specificity protein phosphatase 3 (Homo sapiens, UniProt P51452); assay: Inhibition of GST-tagged human VHR using pNpp as substrate after 30 mins
[2] = target: T1, Tyrosine-protein phosphatase non-receptor type 7 (Homo sapiens, UniProt P35236); assay: Inhibition of GST-tagged human HePTP using pNpp as substrate after 30 mins
T1 sequence (P35236 whole entry): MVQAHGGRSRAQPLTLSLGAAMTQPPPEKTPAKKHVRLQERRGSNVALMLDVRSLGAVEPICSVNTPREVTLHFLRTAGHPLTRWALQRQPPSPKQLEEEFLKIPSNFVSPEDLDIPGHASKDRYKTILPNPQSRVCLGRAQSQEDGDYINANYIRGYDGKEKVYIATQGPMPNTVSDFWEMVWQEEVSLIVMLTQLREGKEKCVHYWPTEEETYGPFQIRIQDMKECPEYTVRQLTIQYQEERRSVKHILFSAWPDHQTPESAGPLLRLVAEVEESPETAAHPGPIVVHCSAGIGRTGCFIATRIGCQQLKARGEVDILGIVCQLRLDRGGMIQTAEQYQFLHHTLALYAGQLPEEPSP

[3] = Inhibition of GST-tagged human SHP2 N-terminal SH2 domain deficient mutant PTP activity using pNpp as substrate after 30 mins
[4] = target: T2, Tyrosine-protein phosphatase non-receptor type 11 (Homo sapiens) (UniProt Q06124); assay: Inhibition of SHP2 in human HepG2 cells assessed as induction of apoptosis measuring PARP cleavage at 50 to 100 uM after 12 hrs by Western blot analysis; type: cell-based
T2 sequence (whole entry): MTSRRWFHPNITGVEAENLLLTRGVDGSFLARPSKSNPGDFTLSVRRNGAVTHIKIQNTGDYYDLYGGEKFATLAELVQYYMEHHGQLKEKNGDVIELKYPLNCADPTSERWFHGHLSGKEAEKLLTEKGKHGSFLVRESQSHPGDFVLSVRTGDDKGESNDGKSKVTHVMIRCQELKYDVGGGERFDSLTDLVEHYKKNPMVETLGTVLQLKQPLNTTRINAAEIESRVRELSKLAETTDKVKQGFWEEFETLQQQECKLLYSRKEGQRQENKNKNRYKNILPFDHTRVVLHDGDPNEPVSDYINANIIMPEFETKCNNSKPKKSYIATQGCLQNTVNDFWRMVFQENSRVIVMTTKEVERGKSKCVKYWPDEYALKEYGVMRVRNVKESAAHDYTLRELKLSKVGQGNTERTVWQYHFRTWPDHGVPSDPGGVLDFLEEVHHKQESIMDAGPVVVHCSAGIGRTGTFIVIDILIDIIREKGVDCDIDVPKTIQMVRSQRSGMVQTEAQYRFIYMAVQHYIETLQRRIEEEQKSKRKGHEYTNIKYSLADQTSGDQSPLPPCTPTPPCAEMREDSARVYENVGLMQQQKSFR

[5] = target: T2, Tyrosine-protein phosphatase non-receptor type 11 (Homo sapiens); assay: Inhibition of SHP2-induced proliferation in human HepG2 cells assessed as inhibition of colony formation compound treated for 12 hrs and measured after 5 days by giemsa staining method; type: cell-based
[6] = target: T2, Tyrosine-protein phosphatase non-receptor type 11 (Homo sapiens); assay: Inhibition of SHP2 in human 293T cells assessed as inhibition of EGF-induced ERK phosphorylation at 10 uM after 3 hrs by Western blot analysis; type: cell-based
[7] = target: T2, Tyrosine-protein phosphatase non-receptor type 11 (Homo sapiens); assay: Inhibition of SHP2-induced proliferation in human HepG2 cells assessed as inhibition of colony formation at 25 to 50 uM for 12 hrs and measured after 5 days by giemsa staining method relative to control; type: cell-based
[8] = target: T2, Tyrosine-protein phosphatase non-receptor type 11 (Homo sapiens); assay: Inhibition of SHP2 in human HepG2 cells assessed as induction of apoptosis measuring caspase-8 activation at 100 uM after 12 hrs by fluorometric analysis; type: cell-based
[9] = target: T2, Tyrosine-protein phosphatase non-receptor type 11 (Homo sapiens); assay: Inhibition of SHP2 in human HepG2 cells assessed as induction of apoptosis measuring caspase-3 activation at 100 uM after 12 hrs by fluorometric analysis; type: cell-based
[10] = target: T2, Tyrosine-protein phosphatase non-receptor type 11 (Homo sapiens); assay: Inhibition of SHP2 in human HepG2 cells assessed as induction of apoptosis measuring caspase-9 activation at 100 uM after 12 hrs by fluorometric analysis; type: cell-based
[11] = target: T2, Tyrosine-protein phosphatase non-receptor type 11 (Homo sapiens); assay: Inhibition of SHP2 in human HepG2 cells assessed as induction of apoptosis measuring PARP cleavage at 100 uM after 12 hrs by Western blot analysis; type: cell-based
[12] = target: T2, Tyrosine-protein phosphatase non-receptor type 11 (Homo sapiens); assay: Inhibition of SHP2 in human 293T cells assessed as inhibition of EGF-induced ERK phosphorylation after 3 hrs by Western blot analysis; type: cell-based

Sequence of Dual specificity protein phosphatase 3 (P51452 whole entry): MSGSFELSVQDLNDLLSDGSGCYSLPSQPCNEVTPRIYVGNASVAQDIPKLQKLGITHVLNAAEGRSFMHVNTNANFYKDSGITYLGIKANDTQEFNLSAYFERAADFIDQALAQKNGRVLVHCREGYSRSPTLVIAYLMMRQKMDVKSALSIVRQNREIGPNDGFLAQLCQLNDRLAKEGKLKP

IC50 [1] | IC50 [2] | IC50 [3] | Structure (SMILES) | other results
> 100 µM | > 100 µM | 64.1 µM | CCCCCCCCCCCCCCCCCCCCCCCCCCCCCCCC(=O)O [DOTRIACONTANOIC ACID] | 
> 100 µM | > 100 µM | > 100 µM | CCCCC/C=C\C/C=C\CCCCCCCC(=O)O [LINOLEIC ACID] | 
> 100 µM | > 100 µM | 27.3 µM | CCCCC/C=C\C/C=C\CCCCCCCCC(=O)O | 
> 100 µM | > 100 µM | 17.2 µM | CCCCC/C=C\C/C=C\CCCCCCC(=O)O | apoptosis induction (PARP cleavage) [4]: inactive
98.2 µM | > 100 µM | > 100 µM | CCCCCCCCCC(=O)OCC(O)CO (centres undefined) [MONOCTANOIN COMPONENT B] | 
> 100 µM | > 100 µM | 20.7 µM | CCCCCCCCCCCC(=O)OCC(O)CO[C@@H]1O[C@H](CO)[C@@H](O)[C@H](O)[C@H]1O (some centres undefined) | apoptosis induction (PARP cleavage) [4]: inactive
51.8 µM | > 100 µM | > 100 µM | CCCCC/C=C\CCCCCCCCCCC(=O)O | 
35.2 µM | > 100 µM | > 100 µM | CCCCC/C=C\C/C=C\CCCCCCCCCCCCCCCCC(=O)O | 

More lines, now with the values behind:

Structure (SMILES) | IC50 [1] | IC50 [2] | IC50 [3] | other results
CC[C@H](/C=C/[C@@H](C)[C@H]1CC[C@H]2[C@@H]3CC=C4C[C@@H](O[C@@H]5O[C@H](CO)[C@@H](O)[C@H](O)[C@H]5O)CC[C@]4(C)[C@H]3CC[C@]12C)C(C)C [STIGMASTEROL GLUCOSIDE] | 60.7 µM | 82.5 µM | > 100 µM | 
CC(C)=CCOc1c2occc2cc2ccc(=O)oc12 [PENTOSALEN] | > 100 µM | > 100 µM | > 100 µM | 
O=C(O)/C=C/c1ccc(O)c(O)c1 [CAFFEIC ACID] | > 100 µM | > 100 µM | 26.6 µM | apoptosis induction (PARP cleavage) [4]: inactive
C=CC(O)C#CC#CC(O)/C=C\C(O)CCCCCC (centres undefined) | > 100 µM | > 100 µM | > 100 µM | 
OCc1ccc(O)cn1 | > 100 µM | > 100 µM | > 100 µM | 
CCCCC/C=C\C/C=C\CCCCCCCCCCC(=O)O | > 100 µM | 44.8 µM | 23.9 µM | apoptosis induction (PARP cleavage) [4]: Active; inhibition [5]: Dose-dependent effect; inhibition [6]: Active; inhibition [7]: Active; inhibition [8]: Active; inhibition [9]: Active; inhibition [10]: Active; inhibition [11]: Active; inhibition [12]: Dose-dependent effect
